Earlier results on two compounds are cited in US7271001B2, “Method for mitochondrial targeting of p53” (The Research Foundation of State University of New York, priority 2004, dated 2007).

Data set [1] has as its system tumor-derived p53 mutant proteins. The conditions noted are these: cell-based assays in vitro.
For a further data set, the system named is tumor xenografts. The conditions noted are these: tumor xenografts in nude mice.

Regarding `COc1ccc(/C=C/c2nc(NCCCN(C)C)c3ccccc3n2)cc1` [CP-31398], the “restoration of transcriptional p53 function” value in data set [1] is on record as “can restore transcriptional p53 function”. Moreover, in the data set on tumor xenografts, the tumor growth result is recorded as “slow tumor growth”.
For `O=C1C2CCN(CC2)C1(CO)CO` [PRIMA-1], the “restoration of transcriptional p53 function” value in data set [1] is “can restore transcriptional p53 function”. For the same compound, the tumor growth result in the data set on tumor xenografts is reported as “slow tumor growth”.
